Common to all, as to format: in vivo
Assay [1] relates to C57/BL6 mice. Kind of assay: Tracer recovery from nasal mucosa after single intranasal dose and ventricular injection of fluorescent tracer. As to conditions: single inhalation, lower doses, p<0.05 relative to controls.
In assay [2] the test system is C57/BL6 mice. The description is as above. As to conditions: single intranasal dose; for increase in nasal tracer recovery relative to vehicle-treated controls: commercial concentrations, p<0.05 vs control; for nasal tracer recovery at higher doses: higher doses than the commercial concentration (5x or 10x); for increase in tracer recovery from the nasal mucosa relative to control animals: p<0.001 compared to control. As to the method: In another exemplary method, compositions including prostaglandin F2-alpha analogues were used to analyze increased lymphatic channel contractility in the nasal mucosa of experimental animals. In this example, prostaglandin F2-alpha analogues latanoprost, bimatoprost, travoprost, latanoprostene bunod, and tafluprost were administered via an intranasal vehicle into the nasal mucosa of mice.
In this example, a total of 67 animals were studied using a scaled dosing technique in which each prostaglandin analog was evaluated at its commercial ophthalmic concentration as well as one or two more concentrated forms (either 5× or 10×).
Commercially available prostaglandin F2-alpha analogues used in the treatment of glaucoma were selected for evaluation; these included latanoprost, bimatoprost, travoprost, latanoprostene bunod, and tafluprost. Initial experiments were conducted with topical ophthalmic preparations, and pharmaceutical grade drug also was obtained and placed into solution for use in a more concentrated form. Agents were solubilized in DMSO and diluted in normal saline.
For single inhalation trails described herein, awake adult male and female C57/BL6 mice (approx. 6 weeks of age) were administered intranasal vehicle (10% DMSO) or drug solution (total 8 μl) by placing droplets (1-2 μl) of liquid at the nares using a micropipette and allowing the animal to inhale the liquid spontaneously. Anesthesia with ketamine and xylazine was administered via intraperitoneal injection, and anesthetized animals were placed within a stereotaxic apparatus. For multiday studies, intranasal drug administration was performed on awake animals daily using the same procedure described above. Approximately 6 hours after the third daily dose was given, animals were anesthetized and placed within a stereotaxic apparatus. A midline incision was created along the scalp, and the right lateral ventricle was targeted with placement of a 26-gauge needle to a depth of 3 mm into the brain at a position 1 mm lateral and 0.3 mm anterior to bregma. A 5 μl intraventricular injection of fluorescent tracer (AlexaFluor^647-ovalbumin solution) was delivered at a rate of 100 nl/seconds using a Hamilton syringe and an electric pump. Animals remained anesthetized for the 1 hour recovery period post injection and were then euthanized with a lethal overdose of ketamine followed by secondary cervical dislocation. Nasal turbinates were harvested, and tissue extracts were analyzed by ELISA.
The experimental technique was validated by evaluating recovery of fluorescent tracer from nasal mucosa after ventricular injection in the absence of intranasal treatment. Time points for tissue harvest were selected based on increased recovery at 60 minutes versus 30 minutes, with later harvest raising concern for potential contamination of specimens by hematogenous CSF absorption and recirculation of tracer throughout the tissues via arterial flow.
Statistical analyses were conducted with Stata using either two-tailed Student's t-tests or ANOVA RM with Dunnet's post hoc analysis.

The subject of assay [3] is C57/BL6 mice. Kind of assay: Tracer recovery from nasal turbinates after intranasal dosing once a day for three consecutive days. As to conditions: 0.1, 0.5 or 1 mg/ml once a day for 3 days. The method, then:
In another example, an additional 14 animals were administered inhaled doses of latanoprost (either 0.1, 0.5, or 1 mg/ml) once a day for three (3) consecutive days. Nasal turbinates were isolated 1 hour after ventricular tracer injection and between 7 and 9 hours after the final latanoprost dose was given intranasally according to the exemplary methods described herein.
For single inhalation trails described herein, awake adult male and female C57/BL6 mice (approx. 6 weeks of age) were administered intranasal vehicle (10% DMSO) or drug solution (total 8 μl) by placing droplets (1-2 μl) of liquid at the nares using a micropipette and allowing the animal to inhale the liquid spontaneously. Anesthesia with ketamine and xylazine was administered via intraperitoneal injection, and anesthetized animals were placed within a stereotaxic apparatus. For multiday studies, intranasal drug administration was performed on awake animals daily using the same procedure described above. Approximately 6 hours after the third daily dose was given, animals were anesthetized and placed within a stereotaxic apparatus. […] Nasal turbinates were harvested, and tissue extracts were analyzed by ELISA. […]

In the case of `CC(C)OC(=O)CCC/C=C\C[C@@H]1[C@@H](/C=C/C(F)(F)COc2ccccc2)[C@H](O)C[C@@H]1O` [tafluprost], the “tracer recovery relative to controls, fluorometric analysis of nasal turbinate homogenates (words, FIG. 3)” value in assay [1] is recorded as “Some enhanced tracer recovery relative to controls”. In assay [2], the “increase in nasal tracer recovery relative to vehicle-treated controls” value is on record as “approximately 1.5 fold” and the “nasal tracer recovery at higher doses” value is recorded as “did not appear to improve at higher doses”.
In the case of `CC(C)OC(=O)CCC/C=C\C[C@@H]1[C@@H](/C=C/[C@@H](O)COc2cccc(C(F)(F)F)c2)[C@H](O)C[C@@H]1O` [travoprost], the “effect on nasal tracer recovery at any tested dose” value in assay [2] is recorded as “Neither travoprost nor latanoprostene bunod demonstrated a measurable effect”.
Turning to `CC(C)OC(=O)CCC/C=C\C[C@@H]1[C@@H](CC[C@@H](O)CCc2ccccc2)[C@H](O)C[C@@H]1O` [latanoprost, isopropyl (Z)-7-[(1R,2R,3R,5S)-3,5-dihydroxy-2-[(3R)3-hydroxy-5-phenylpentyl]-cyclopentyl] hept-5-enoate], the “difference in tracer recovery amongst the 3 doses” value in assay [3] is given as “no statistically significant difference”. Besides, the “increase in tracer recovery relative to controls” value in assay [3] (turbinates isolated 1 hour after tracer injection, 7 to 9 hours after final dose, p<0.05) is given as around 3 fold. Moreover, the “increase in tracer recovery from the nasal mucosa relative to control animals” value in assay [2] (0.5 mg/ml solution, after 60 minutes) is on record as “approximately 10 fold”; in assay [2] (1 mg/ml solution, after 60 minutes), “approximately 10 fold”. In addition, the “dose dependence of the increase in tracer recovery from the nasal mucosa” value in assay [2] (0.1 to 1 mg/ml, after 60 minutes) is on record as “semi dose-dependent increase”. The “tracer recovery compared with all tested prostaglandin analogs and 0.1 mg/ml latanoprost” value in assay [2] (concentrated 0.5 mg/ml and 1 mg/ml) was “significant increase in tracer recovery over all tested prostaglandin analogs and 0.1 mg/ml latanoprost”. In addition, in assay [2] (standard ophthalmic dose 0.1 mg/ml, p<0.01 vs control), the “increased tracer recovery vs control” value is given as “approximately 6 fold”.
Consider `O=C(CCC/C=C\C[C@@H]1[C@@H](CC[C@@H](O)CCc2ccccc2)[C@H](O)C[C@@H]1O)OCCCCO[N+](=O)[O-]` [latanoprostene bunod], for which the “effect on nasal tracer recovery at any tested dose” value in assay [2] is “Neither travoprost nor latanoprostene bunod demonstrated a measurable effect”.
Consider `CCNC(=O)CCC/C=C\C[C@@H]1[C@@H](/C=C/[C@@H](O)CCc2ccccc2)[C@H](O)C[C@@H]1O` [bimatoprost], for which the “tracer recovery relative to controls, fluorometric analysis of nasal turbinate homogenates (words, FIG. 3)” value in assay [1] is recorded as “Some enhanced tracer recovery relative to controls”. In assay [2], the “increase in nasal tracer recovery relative to vehicle-treated controls” value is given as “approximately 1.5 fold” and the “nasal tracer recovery at higher doses” value is on record as “did not appear to improve at higher doses”.
